What all share (experiment): Species specificity: recombinant tagged GSK-3 orthologue kinase assay
In test [1] the target is T1, GSK-3 (Plasmodium knowlesi, UniProt A0A679KU36).
T1 sequence (A0A679KU36 1-473): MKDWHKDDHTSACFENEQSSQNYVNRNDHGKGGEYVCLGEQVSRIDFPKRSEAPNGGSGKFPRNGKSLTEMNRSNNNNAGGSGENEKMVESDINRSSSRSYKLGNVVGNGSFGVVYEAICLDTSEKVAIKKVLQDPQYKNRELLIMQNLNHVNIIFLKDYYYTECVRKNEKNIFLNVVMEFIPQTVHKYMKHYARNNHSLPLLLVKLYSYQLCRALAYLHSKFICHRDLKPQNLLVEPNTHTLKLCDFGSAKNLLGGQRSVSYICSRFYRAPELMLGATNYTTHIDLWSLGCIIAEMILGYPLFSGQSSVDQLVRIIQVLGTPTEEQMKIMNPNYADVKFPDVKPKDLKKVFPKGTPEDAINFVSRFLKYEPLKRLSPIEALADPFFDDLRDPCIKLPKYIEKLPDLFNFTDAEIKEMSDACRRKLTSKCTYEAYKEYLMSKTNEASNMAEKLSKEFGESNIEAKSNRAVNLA
Type of test: biochemical.

For test [2], the target named is T2, GSK-3 (Leishmania donovani, UniProt A6N857).
T2 sequence (A6N857 1-355): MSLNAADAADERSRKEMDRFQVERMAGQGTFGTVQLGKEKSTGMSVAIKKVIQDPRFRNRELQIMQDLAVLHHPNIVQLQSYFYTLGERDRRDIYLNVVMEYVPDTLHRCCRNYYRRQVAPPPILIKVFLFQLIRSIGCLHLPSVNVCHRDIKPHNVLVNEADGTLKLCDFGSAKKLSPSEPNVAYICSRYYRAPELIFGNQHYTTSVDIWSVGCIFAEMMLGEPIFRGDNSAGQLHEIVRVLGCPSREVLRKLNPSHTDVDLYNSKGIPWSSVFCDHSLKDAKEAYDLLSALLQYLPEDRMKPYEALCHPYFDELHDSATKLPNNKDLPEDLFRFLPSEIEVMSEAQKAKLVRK
It counts as biochemical.

For test [3], the target named is T3, GSK-3 (Plasmodium falciparum, UniProt O77344).
T3 construct: made in house
It counts as biochemical. The source says: (§1) Given the strong conservation of GSK-3 across evolution and the surprising selectivity of the compounds according to the present invention towards PfGSK-3 versus mammalian GSK-3, a selection of 12 GSK-3 orthologues of various species chosen on the "tree of life" analyzed. The species belong to the Apicomplexa (P. falciparum, P. vivax, P. knowlesi and P. berghei (Gardner, M.J. et al. Genome sequence of the human malaria parasite Plasmodium falciparum. Nature 419, 498-511 (2002); Carlton, J.M. et al. Comparative genomics of the neglected human malaria parasite Plasmodium vivax. Nature 455, 799-803 (2008); Pain, A. et al. The genome of the simian and human malaria parasite Plasmodium knowlesi. Nature 455, 799-803 (2008).). Toxoplasma gondii (Qin, C.L., Tang, J. and Kim, K. Cloning and in vitro expression of TPK3, a Toxoplasma gondii homologue of shaggy/glycogen synthase kinase-3 kinases. Mol. Biochem. Parasitol. 93, 273-283 (1998)), Cryptosporidium parvum.
(§2) Following PCR amplification from cDNA libraries or direct synthesis based on databases sequences, the GSK-3 genes were inserted in appropriate expression vectors and recombinant, tagged kinases were expressed, affinity purified and assayed in the presence of up to 10-100µM of each compound of formula (I) according to the present invention and a selection of the PfGSK-3 inhibitors.

Test [4] concerns the target T4, GSK-3 (Dictyostelium discoideum, UniProt P51136).
T4 construct: made in house
Type of test: biochemical.
Excerpt: as §1, §2

For test [5], the target named is T5, GSK-3 (Toxoplasma gondii, UniProt O44002).
T5 sequence (O44002 1-394): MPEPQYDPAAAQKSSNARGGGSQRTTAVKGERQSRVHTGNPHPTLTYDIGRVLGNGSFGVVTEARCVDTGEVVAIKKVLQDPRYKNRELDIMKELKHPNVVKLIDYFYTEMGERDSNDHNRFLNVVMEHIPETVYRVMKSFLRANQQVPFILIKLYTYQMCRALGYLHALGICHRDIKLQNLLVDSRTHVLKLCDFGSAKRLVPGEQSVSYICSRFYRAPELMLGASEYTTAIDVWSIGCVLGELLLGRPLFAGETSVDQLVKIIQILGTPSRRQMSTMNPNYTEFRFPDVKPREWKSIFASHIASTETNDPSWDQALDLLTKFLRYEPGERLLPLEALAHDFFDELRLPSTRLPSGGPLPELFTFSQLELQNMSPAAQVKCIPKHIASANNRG
It counts as biochemical, Toxaplasma grondii.

Test [6] deals with T6, GSK-3 (Cryptosporidium parvum, UniProt A3FQN0).
T6 sequence (A3FQN0 1-433): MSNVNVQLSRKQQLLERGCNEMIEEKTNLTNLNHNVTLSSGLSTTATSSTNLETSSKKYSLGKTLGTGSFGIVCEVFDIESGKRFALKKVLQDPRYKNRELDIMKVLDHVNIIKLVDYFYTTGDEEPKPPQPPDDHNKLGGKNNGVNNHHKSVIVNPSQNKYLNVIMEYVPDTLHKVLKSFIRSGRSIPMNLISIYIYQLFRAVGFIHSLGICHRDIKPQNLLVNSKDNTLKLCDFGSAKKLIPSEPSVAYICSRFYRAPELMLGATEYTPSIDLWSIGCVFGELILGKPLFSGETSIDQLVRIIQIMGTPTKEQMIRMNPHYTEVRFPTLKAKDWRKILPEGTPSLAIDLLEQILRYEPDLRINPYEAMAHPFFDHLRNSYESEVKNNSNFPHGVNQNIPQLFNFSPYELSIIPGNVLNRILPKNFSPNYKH
It counts as biochemical.

Test [7] deals with T7, GSK- 3 β (Homo sapiens, UniProt P49841).
T7 construct: made in house
It counts as biochemical. To be noted: calculated from dose-response curves; -(100) taken as no inhibition at 100.
Excerpt: as §1, §2

The mark [8] stands for this setting: read-out: IC50 Plasmodium knowlesi; calculated from dose-response curves.
[9] abbreviates: read-out: IC50 Leishmania donovani; calculated from dose-response curves.
The mark [10] stands for this setting: calculated from dose-response curves; read-out: IC50 Plasmodium knowlesi.
[11] abbreviates: calculated from dose-response curves; read-out: IC50 Leishmania donovani.
Setting [12] is: calculated from dose-response curves, -(100) taken as no inhibition at 100, read-out: IC50 Toxaplasma grondii.
[13] abbreviates: calculated from dose-response curves, -(100) taken as no inhibition at 100, read-out: IC50 Cryptosporidium parvum.

Read-outs that look alike come from different tables or passages of the source. A value given as a limit tells only on which side of the number the result lay.

The term IC50 denotes the concentration that inhibits the measured activity by half.

T7 sequence (P49841 whole entry): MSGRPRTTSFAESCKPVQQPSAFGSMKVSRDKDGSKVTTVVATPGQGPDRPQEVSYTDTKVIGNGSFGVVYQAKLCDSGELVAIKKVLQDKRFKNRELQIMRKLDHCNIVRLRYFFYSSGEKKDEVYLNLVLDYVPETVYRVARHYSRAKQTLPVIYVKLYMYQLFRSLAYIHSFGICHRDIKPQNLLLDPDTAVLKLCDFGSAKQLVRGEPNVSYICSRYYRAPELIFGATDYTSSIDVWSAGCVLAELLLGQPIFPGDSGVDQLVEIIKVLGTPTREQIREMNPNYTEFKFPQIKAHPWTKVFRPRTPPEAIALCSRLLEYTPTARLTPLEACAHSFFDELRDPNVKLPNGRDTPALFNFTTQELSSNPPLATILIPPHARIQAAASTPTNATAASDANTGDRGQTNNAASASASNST
T4 sequence (P51136 whole entry): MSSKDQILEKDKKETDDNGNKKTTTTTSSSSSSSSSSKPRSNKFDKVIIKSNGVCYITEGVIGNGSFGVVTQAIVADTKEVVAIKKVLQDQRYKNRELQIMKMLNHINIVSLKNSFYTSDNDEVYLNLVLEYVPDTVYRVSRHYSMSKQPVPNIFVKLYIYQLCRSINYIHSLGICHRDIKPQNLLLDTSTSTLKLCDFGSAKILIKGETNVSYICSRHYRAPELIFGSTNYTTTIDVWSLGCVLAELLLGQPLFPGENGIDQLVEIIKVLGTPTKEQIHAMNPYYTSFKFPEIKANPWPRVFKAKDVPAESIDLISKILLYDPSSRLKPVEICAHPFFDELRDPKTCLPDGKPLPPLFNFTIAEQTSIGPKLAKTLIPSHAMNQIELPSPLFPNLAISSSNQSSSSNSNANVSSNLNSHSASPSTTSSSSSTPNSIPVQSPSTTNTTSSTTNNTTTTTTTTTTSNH
T3 sequence (O77344 entry or part of it): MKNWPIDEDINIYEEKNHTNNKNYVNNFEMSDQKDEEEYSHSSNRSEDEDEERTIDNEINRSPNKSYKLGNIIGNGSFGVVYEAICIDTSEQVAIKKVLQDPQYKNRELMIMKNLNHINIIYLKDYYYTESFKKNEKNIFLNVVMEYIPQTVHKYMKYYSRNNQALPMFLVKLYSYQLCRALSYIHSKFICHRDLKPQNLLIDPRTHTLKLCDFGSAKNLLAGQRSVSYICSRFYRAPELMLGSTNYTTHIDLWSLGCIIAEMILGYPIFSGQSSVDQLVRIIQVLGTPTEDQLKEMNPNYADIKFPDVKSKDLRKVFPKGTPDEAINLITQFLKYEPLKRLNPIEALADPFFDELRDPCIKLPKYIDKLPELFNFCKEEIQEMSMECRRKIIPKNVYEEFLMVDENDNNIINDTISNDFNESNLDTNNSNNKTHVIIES

For the compound `COc1ccccc1-c1c(C#N)c(N)nc2sc(C(=O)c3ccccc3)c(N)c12` [Compound 2, 3,6-diamino-2-benzoyl-4-(2-methoxyphenyl)thieno[2,3-b]pyridine-5-carbonitrile], the IC50 in test [1] (setting [8]) is 95000 nM; in test [2] (setting [9]) it was 80 µM; in test [3] it was 7800 nM; in test [4] it was above 100 µM; in test [5], above 100 µM; in test [6], above 100 µM.

With `N#Cc1c(N)nc2sc(C(=O)c3cccc(Cl)c3)c(N)c2c1-c1ccccc1I` [Compound 14, 3,6-diamino-2-(3-chlorobenzoyl)-4-(2-iodophenyl)thieno[2,3-b]pyridine-5-carbonitrile], the IC50 in test [1] (setting [10]) is 2750 nM; in test [2] (setting [11]) it was 70 µM; in test [7], 50 µM; in test [3] (read-out: IC50 Plasmodium falciparum, calculated from dose-response curves), 101000 nM; in test [4] it was above 100 µM; in test [5] (setting [12]) it was above 100 µM. Besides, the IC50 in test [6] (setting [13]) is above 100 µM.

Regarding `N#Cc1c(N)nc2sc(C(=O)c3cccc(Cl)c3)c(N)c2c1-c1ccccc1Br` [Compound 20, 3,6-diamino-4-(2-bromophenyl)-2-(3-chlorobenzoyl)thieno[2,3-b]pyridine-5-carbonitrile], the IC50 in test [1] (setting [10]) is 1450 nM; in test [2] (setting [11]), 44 µM; in test [7] it was 4 µM; in test [3], 470 nM; in test [4], 80 µM; in test [5] (setting [12]), above 100 µM. Besides, in test [6] (setting [13]), the IC50 was above 100 µM.

Consider `N#Cc1c(N)nc2sc(C(=O)c3cccc(Cl)c3)c(N)c2c1-c1ccccc1Cl` [Compound 22, 3,6-diamino-2-(3-chlorobenzoyl)-4-(2-chlorophenyl)thieno[2,3-b]pyridine-5-carbonitrile], for which the IC50 in test [1] (setting [8]) is 2450 nM; in test [2] (setting [9]) it was 72 µM; in test [7], 3.3 µM; in test [3], 410 nM; in test [4], above 10 µM; in test [5] it was above 100 µM. In test [6], the IC50 is above 100 µM.

`N#Cc1cccc(C(=O)c2sc3nc(N)c(C#N)c(-c4ccccc4Cl)c3c2N)c1` [Compound 26, 3,6-diamino-4-(2-chlorophenyl)-2-(3-cyanobenzoyl)thieno[2,3-b]pyridine-5-carbonitrile]: the IC50 in test [1] (setting [10]) was 6500 nM; in test [2] (setting [11]), 100 µM; in test [7], 8.1 µM; in test [3], 210 nM; in test [4], above 100 µM; in test [5] (setting [12]), above 100 µM. In addition, the IC50 in test [6] (setting [13]) was above 100 µM.

The values are drawn from patent EP2308883A1, “New derivatives of thieno[2,3-b]pyridine and 5,6,7,8 tetrahydrothieno[2,3 b]quinoline in particular useful in the treatment of malaria” (priority 2009, dated 2011).
